Protocol: The suspensions were stirred for 24 hours at 25° C. The undissolved residues were removed by filtration through a […] filter. The solutions were diluted with a 1:1 water/ethanol mixture and concentrations of the guest molecules were determined spectrophotometrically using an HP 8542 diode array spectrophotometer. The solubility of the guest molecules was represented as a function of the CD derivative concentration. The apparent binding constants were calculated from the slope of the solubility isotherm. The guest molecules evaluated were water-immiscible pharmaceuticals, fragrances, and other organic molecules.

Compound | Kc(HBen-β-CD), apparent binding constant in guest molecule/CD derivative complex [M⁻¹] | Kc(HP-β-CD), apparent binding constant in guest molecule/CD derivative complex [M⁻¹] | Binding constants compared with HP-β-CD, in words
Cc1ccccc1 [Toluene, toluene] | 1111 | 773 | –
hydroxybutenyl-β-cyclodextrin [HBen-β-CD] | – | – | higher binding constants than did HP-β-CD

Now from value to compound, other results behind:

Kc(HBen-β-CD), apparent binding constant in guest molecule/CD derivative complex [M⁻¹] | Kc(HP-β-CD), apparent binding constant in guest molecule/CD derivative complex [M⁻¹] | Compound | Binding constants compared with HP-β-CD, in words
136 | 62 | COc1ccc(Cl)cc1C(=O)NCCc1ccc(S(=O)(=O)NC(=O)NC2CCCCC2)cc1 [Glibenclamide, glibenclamide] | –
520 | 376 | CC(C)Cc1ccc(C(C)C(=O)O)cc1 (centres unmarked) [Ibuprofen, ibuprofen] | –
183 | – | O=C(O)c1ccccc1O [Salicylic Acid, salicylic acid] | –

From patent US6479467B1, “Cyclodextrin ethers” (Eastman Chemical Company, priority 1999, dated 2002)
